Results taken from patent US20230233569A1 (Revolution Medicines, Inc., priority 2020, published 2023).
Like-named read-outs stand apart in the source and are kept apart here.

How the values were obtained:
Experiment in all cases: Ras-Raf disruption / FRET / MOA assay (BRAF RBD)
Format in all cases: biochemical
KRAS G12D = KRAS G12D (Homo sapiens, UniProt P01116+P62937, G12D); conditions: with Cyclophilin A
Outline: (§1)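 Compound-induced Ras–Cyclophilin A ternary complex disrupting BRAF RBD binding, read as IC50 from reduced TR-FRET ratio relative to DMSO. Final: Ras-GMPPNP 12.5 nM, BRAF RBD 50 nM, Cyclophilin A 25 μM, top compound 30 μM (3-fold, 10 points); 3 h at 25 °C, then 1.5 h with detection antibodies.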

KRAS G12S = KRAS G12S (Homo sapiens, UniProt P01116+P62937, G12S); conditions: with Cyclophilin A
Chain of KRAS G12S (P01116 1-169 isoform P01116-2 G12S limits assumed): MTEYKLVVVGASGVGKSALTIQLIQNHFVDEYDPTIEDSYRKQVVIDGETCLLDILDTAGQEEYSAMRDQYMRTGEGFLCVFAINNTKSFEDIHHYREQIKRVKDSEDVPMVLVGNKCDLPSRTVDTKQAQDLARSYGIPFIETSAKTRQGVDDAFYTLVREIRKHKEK
Chain of KRAS G12S (P62937 whole entry): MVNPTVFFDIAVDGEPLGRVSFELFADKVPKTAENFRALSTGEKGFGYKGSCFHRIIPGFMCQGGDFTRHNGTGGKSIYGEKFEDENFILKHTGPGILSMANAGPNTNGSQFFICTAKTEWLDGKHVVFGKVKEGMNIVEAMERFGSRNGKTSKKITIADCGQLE
Outline: as §1

KRAS G12V = KRAS G12V (Homo sapiens, UniProt P01116+P62937, G12V); conditions: with Cyclophilin A
Chain of KRAS G12V (P01116 1-169 isoform P01116-2 G12V limits assumed): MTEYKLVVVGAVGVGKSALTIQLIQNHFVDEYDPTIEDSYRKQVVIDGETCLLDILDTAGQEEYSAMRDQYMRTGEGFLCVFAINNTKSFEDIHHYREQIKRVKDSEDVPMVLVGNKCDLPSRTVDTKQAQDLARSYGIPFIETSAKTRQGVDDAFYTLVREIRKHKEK
Chain of KRAS G12V (P62937 whole entry): as the sequence (P62937 whole entry) above
Outline: as §1

KRAS G13C = KRAS G13C (Homo sapiens, UniProt P01116+P62937, G13C); conditions: with Cyclophilin A
Chain of KRAS G13C (P01116 1-169 isoform P01116-2 G13C limits assumed): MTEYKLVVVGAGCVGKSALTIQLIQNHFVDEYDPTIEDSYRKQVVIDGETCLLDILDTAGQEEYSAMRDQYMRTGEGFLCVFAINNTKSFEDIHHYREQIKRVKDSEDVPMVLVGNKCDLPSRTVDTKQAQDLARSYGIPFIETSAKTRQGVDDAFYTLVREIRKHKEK
Chain of KRAS G13C (P62937 whole entry): as the sequence (P62937 whole entry) above
Outline: as §1

KRAS G13D = KRAS G13D (Homo sapiens, UniProt P01116+P62937, G13D); conditions: with Cyclophilin A
Chain of KRAS G13D (P01116 1-169 isoform P01116-2 G13D limits assumed): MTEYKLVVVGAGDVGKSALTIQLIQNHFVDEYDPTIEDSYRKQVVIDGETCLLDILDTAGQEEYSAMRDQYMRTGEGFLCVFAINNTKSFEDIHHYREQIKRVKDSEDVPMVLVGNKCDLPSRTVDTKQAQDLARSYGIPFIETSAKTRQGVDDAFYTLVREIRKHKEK
Chain of KRAS G13D (P62937 whole entry): as the sequence (P62937 whole entry) above
Outline: as §1

KRAS Q61H = KRAS Q61H (Homo sapiens, UniProt P01116+P62937, Q61H)
Chain of KRAS Q61H (P01116 1-169 isoform P01116-2 Q61H limits assumed): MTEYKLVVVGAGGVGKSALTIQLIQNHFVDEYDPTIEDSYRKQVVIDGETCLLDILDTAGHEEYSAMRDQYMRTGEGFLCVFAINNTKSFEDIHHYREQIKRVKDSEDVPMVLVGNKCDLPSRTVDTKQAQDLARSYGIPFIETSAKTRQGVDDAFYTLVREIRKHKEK
Chain of KRAS Q61H (P62937 whole entry): as the sequence (P62937 whole entry) above
Outline: as §1

KRAS WT = KRAS WT (Homo sapiens, UniProt P01116+P62937); conditions: with Cyclophilin A
Chain of KRAS WT (P01116 1-169 isoform P01116-2 limits assumed): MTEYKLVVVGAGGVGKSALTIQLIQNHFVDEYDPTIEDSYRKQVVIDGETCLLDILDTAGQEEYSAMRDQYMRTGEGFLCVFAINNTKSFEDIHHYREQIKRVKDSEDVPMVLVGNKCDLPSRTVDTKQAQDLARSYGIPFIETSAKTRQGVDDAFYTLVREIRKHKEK
Chain of KRAS WT (P62937 whole entry): as the sequence (P62937 whole entry) above
Outline: as §1

NRAS G12C = NRAS G12C (Homo sapiens, UniProt P01111+P62937, G12C)
Chain of NRAS G12C (P01111 whole entry G12C): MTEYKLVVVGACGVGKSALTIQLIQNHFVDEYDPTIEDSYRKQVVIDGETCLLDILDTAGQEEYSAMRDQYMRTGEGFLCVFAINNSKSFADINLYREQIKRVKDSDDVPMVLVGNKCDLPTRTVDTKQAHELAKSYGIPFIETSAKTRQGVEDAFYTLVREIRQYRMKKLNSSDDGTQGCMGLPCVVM
Chain of NRAS G12C (P62937 whole entry): as the sequence (P62937 whole entry) above
Outline: as §1

NRAS Q61K = NRAS Q61K (Homo sapiens, UniProt P01111+P62937, Q61K)
Chain of NRAS Q61K (P01111 whole entry Q61K): as the sequence (P01111 whole entry G12C) above, with C12G, Q61K counted along it
Chain of NRAS Q61K (P62937 whole entry): as the sequence (P62937 whole entry) above
Outline: as §1

NRAS Q61R = NRAS Q61R (Homo sapiens, UniProt P01111+P62937, Q61R)
Chain of NRAS Q61R (P01111 whole entry Q61R): as the sequence (P01111 whole entry G12C) above, with C12G, Q61R counted along it
Chain of NRAS Q61R (P62937 whole entry): as the sequence (P62937 whole entry) above
Outline: as §1

NRAS WT = NRAS WT (Homo sapiens, UniProt P01111+P62937)
Chain of NRAS WT (P01111 whole entry): as the sequence (P01111 whole entry G12C) above, with C12G counted along it
Chain of NRAS WT (P62937 whole entry): as the sequence (P62937 whole entry) above
Outline: as §1

KRAS G12C = KRAS G12C (Homo sapiens, UniProt P01116+P62937, G12C); conditions: with Cyclophilin A
Chain of KRAS G12C (P01116 1-169 isoform P01116-2 G12C limits assumed): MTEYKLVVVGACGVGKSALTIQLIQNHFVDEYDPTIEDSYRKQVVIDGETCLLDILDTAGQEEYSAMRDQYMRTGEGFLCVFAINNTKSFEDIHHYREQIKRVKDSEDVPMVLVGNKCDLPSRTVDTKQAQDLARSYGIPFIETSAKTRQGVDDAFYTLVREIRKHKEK
Chain of KRAS G12C (P62937 whole entry): as the sequence (P62937 whole entry) above
Outline: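 TR-FRET read-out after 1.5 h with anti-His Eu-W1024 (10 nM) and anti-GST APC (50 nM), following 3 h at 25 °C of compound (top 30 μM, 3-fold, 10 points) with 25 μM Cyclophilin A, 12.5 nM GMPPNP-loaded K-Ras G12C and 50 nM BRAF RBD; IC50 reported.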

[1] = KRAS G12D FRET data IC50, Ras-Raf disruption
[2] = KRAS G12S FRET data IC50, Ras-Raf disruption
[3] = KRAS G12V FRET data IC50, Ras-Raf disruption
[4] = KRAS G13C FRET data IC50, Ras-Raf disruption
[5] = KRAS G13D FRET data IC50, Ras-Raf disruption
[6] = KRAS WT FRET data IC50, Ras-Raf disruption
[7] = NRAS G12C FRET data IC50, NRAS G12C
[8] = KRAS G12C FRET data IC50, Ras-Raf disruption
[9] = Ras-Raf disruption, read-out: KRAS G12D FRET data IC50
[10] = Ras-Raf disruption, read-out: KRAS G12S FRET data IC50
[11] = Ras-Raf disruption, read-out: KRAS G12V FRET data IC50
[12] = Ras-Raf disruption, read-out: KRAS G13C FRET data IC50
[13] = Ras-Raf disruption, read-out: KRAS G13D FRET data IC50
[14] = KRAS Q61H, read-out: KRAS Q61H FRET data IC50
[15] = Ras-Raf disruption, read-out: KRAS WT FRET data IC50
[16] = NRAS G12C, read-out: NRAS G12C FRET data IC50
[17] = NRAS Q61K, read-out: NRAS Q61K FRET data IC50
[18] = NRAS Q61R, read-out: NRAS Q61R FRET data IC50
[19] = NRAS WT, read-out: NRAS WT FRET data IC50
[20] = Ras-Raf disruption, read-out: KRAS G12C FRET data IC50

Chain of KRAS G12D (P01116 1-169 isoform P01116-2 G12D limits assumed): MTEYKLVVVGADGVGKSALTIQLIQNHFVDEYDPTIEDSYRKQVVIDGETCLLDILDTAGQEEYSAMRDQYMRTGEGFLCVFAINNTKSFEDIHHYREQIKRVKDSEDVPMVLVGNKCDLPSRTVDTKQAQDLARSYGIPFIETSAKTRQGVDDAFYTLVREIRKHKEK
Chain of KRAS G12D (P62937 whole entry): as the sequence (P62937 whole entry) above

IC50 (KRAS G12D; [9]) | IC50 (KRAS G12S; [10]) | IC50 (KRAS G12V; [11]) | IC50 (KRAS G13C; [12]) | IC50 (KRAS G13D; [13]) | IC50 (KRAS Q61H; [14]) | IC50 (KRAS WT; [15]) | IC50 (NRAS G12C; [16]) | Structure (SMILES) | IC50 (KRAS G12D; [1]) | IC50 (KRAS G12S; [2]) | IC50 (KRAS G12V; [3]) | IC50 (KRAS G13C; [4]) | IC50 (KRAS G13D; [5]) | IC50 (KRAS Q61H) | IC50 (KRAS WT; [6]) | IC50 (NRAS G12C; [7]) | IC50 (NRAS Q61K) | IC50 (NRAS Q61R) | IC50 (NRAS WT) | IC50 (KRAS G12C; [8]) | other results
 |  |  |  |  |  |  |  | CCn1c(-c2cccnc2[C@H](C)OC)c2c3cc(ccc31)-c1cc(O)cc(c1)C[C@H](NC(=O)[C@H](C1CCCC1)N(C)C(=O)CN(C)C(=O)[C@H]1N[C@H]1C1(C#N)CC1)C(=O)N1CCC[C@H](N1)C(=O)OCC(C)(C)C2 [Example 316] | 10 to 100 nM | 10 to 100 nM | 10 to 100 nM | 10 to 100 nM | 10 to 100 nM | 10 to 100 nM | 10 to 100 nM | 10 to 100 nM | 100 to 1000 nM | 100 to 1000 nM | 10 to 100 nM | 10 to 100 nM | 
 |  |  |  |  |  |  |  | CCn1c(-c2cccnc2[C@H](C)OC)c2c3cc(ccc31)-c1cc(O)cc(c1)C[C@H](NC(=O)[C@H](C1CCCC1)N(C)C(=O)CN(C)C(=O)[C@H]1[C@@H](C3CC3)N1CCCOC)C(=O)N1CCC[C@H](N1)C(=O)OCC(C)(C)C2 (stereo partly drawn) [Example 317] | 100 to 1000 nM | 10 to 100 nM | 10 to 100 nM | 10 to 100 nM | 100 to 1000 nM | 10 to 100 nM | 10 to 100 nM | 10 to 100 nM | 100 to 1000 nM | 100 to 1000 nM | 10 to 100 nM | 10 to 100 nM | 
 |  |  |  |  |  |  |  | CCn1c(-c2cccnc2[C@H](C)OC)c2c3cc(ccc31)-c1cc(cc(C(F)F)c1)C[C@H](NC(=O)[C@H](C1CCCC1)N(C)C(=O)CN(C)C(=O)[C@@H]1N[C@@H]1C1CC1)C(=O)N1CCC[C@H](N1)C(=O)OCC(C)(C)C2 [Example 320] | 1000 to 10000 nM | 1000 to 10000 nM | 1000 to 10000 nM | 100 to 1000 nM | 1000 to 10000 nM | 100 to 1000 nM | 1000 to 10000 nM | 100 to 1000 nM | 1000 to 10000 nM | 1000 to 10000 nM | 1000 to 10000 nM | 100 to 1000 nM | 
 |  |  |  |  |  |  |  | CCn1c(-c2cc(N3CCN(C)CC3)cnc2[C@H](C)OC)c2c3cc(ccc31)-c1cc(O)cc(c1)C[C@H](NC(=O)[C@H](C1CCCC1)N(C)C(=O)CN(C)C(=O)[C@@H]1N[C@@H]1C1CC1)C(=O)N1CCC[C@H](N1)C(=O)OCC(C)(C)C2 [Example 325] | < 10 nM | < 10 nM | < 10 nM | < 10 nM | 10 to 100 nM | < 10 nM | < 10 nM | < 10 nM | 10 to 100 nM | 10 to 100 nM | < 10 nM | < 10 nM | 
 |  |  |  |  |  |  |  | CCn1c(-c2cccnc2[C@H](C)OC)c2c3cc(ccc31)-c1cc(O)cc(c1)C[C@H](NC(=O)[C@H](C1CCCC1)N(C)C(=O)[C@@H](C)N(C)C(=O)[C@@H]1N[C@@H]1C1CC1)C(=O)N1CCC[C@H](N1)C(=O)OCC(C)(C)C2 [Example 327] | 1000 to 10000 nM | > 10000 nM | > 10000 nM | 1000 to 10000 nM | > 10000 nM | 1000 to 10000 nM | 1000 to 10000 nM | 1000 to 10000 nM | > 10000 nM | > 10000 nM | > 10000 nM | 1000 to 10000 nM | 
 |  |  |  |  |  |  |  | CCn1c(-c2cccnc2[C@H](C)OC)c2c3cc(ccc31)-c1cc(O)cc(c1)C[C@H](NC(=O)[C@H](C1CCCC1)N(C)C(=O)[C@H](C)N(C)C(=O)[C@@H]1N[C@@H]1C1CC1)C(=O)N1CCC[C@H](N1)C(=O)OCC(C)(C)C2 [Example 328] | 100 to 1000 nM | 10 to 100 nM | 10 to 100 nM | 10 to 100 nM | 100 to 1000 nM | 10 to 100 nM | 10 to 100 nM | 10 to 100 nM | 100 to 1000 nM | 100 to 1000 nM | 10 to 100 nM | 10 to 100 nM | 
100 to 1000 nM | 10 to 100 nM | 10 to 100 nM | < 10 nM | 10 to 100 nM | 10 to 100 nM | 10 to 100 nM | < 10 nM | CCOC(=O)[C@H]1O[C@@H]1C(=O)N1CC[C@H](C(=O)N(C)[C@H](C(=O)N[C@H]2Cc3cc(O)cc(c3)-c3ccc4c(c3)c(c(-c3cccnc3[C@H](C)OC)n4CC)CC(C)(C)COC(=O)[C@@H]3CCCN(N3)C2=O)C(C)C)C1 [Example 329] |  |  |  |  |  |  |  |  |  |  |  |  | IC50 (NRAS Q61K; [17]): 10 to 100 nM; IC50 (NRAS Q61R; [18]): 10 to 100 nM; IC50 (NRAS WT; [19]): 10 to 100 nM; IC50 (KRAS G12C; [20]): < 10 nM
10 to 100 nM | 10 to 100 nM | 10 to 100 nM | < 10 nM | 10 to 100 nM | 10 to 100 nM | 10 to 100 nM | < 10 nM | CCn1c(-c2cccnc2[C@H](C)OC)c2c3cc(ccc31)-c1cc(O)cc(c1)C[C@H](NC(=O)[C@H](C(C)C)N(C)C(=O)[C@H]1CCN(C(=O)C3CO3)C1)C(=O)N1CCC[C@H](N1)C(=O)OCC(C)(C)C2 (stereo partly drawn) [Example 330] |  |  |  |  |  |  |  |  |  |  |  |  | IC50 (NRAS Q61K; [17]): 100 to 1000 nM; IC50 (NRAS Q61R; [18]): 100 to 1000 nM; IC50 (NRAS WT; [19]): 10 to 100 nM; IC50 (KRAS G12C; [20]): < 10 nM
100 to 1000 nM | 10 to 100 nM | 10 to 100 nM | 10 to 100 nM | 100 to 1000 nM | 10 to 100 nM | 10 to 100 nM | 10 to 100 nM | CCn1c(-c2cccnc2[C@H](C)OC)c2c3cc(ccc31)-c1cc(O)cc(c1)C[C@H](NC(=O)[C@H](C(C)C)N(C)C(=O)[C@H]1CCN(C(=O)C3OC3c3ccccc3)C1)C(=O)N1CCC[C@H](N1)C(=O)OCC(C)(C)C2 (stereo partly drawn) [Example 331] |  |  |  |  |  |  |  |  |  |  |  |  | IC50 (NRAS Q61K; [17]): 100 to 1000 nM; IC50 (NRAS Q61R; [18]): 100 to 1000 nM; IC50 (NRAS WT; [19]): 10 to 100 nM; IC50 (KRAS G12C; [20]): < 10 nM
100 to 1000 nM | 10 to 100 nM | 10 to 100 nM | 10 to 100 nM | 10 to 100 nM | 10 to 100 nM | 10 to 100 nM | 10 to 100 nM | CCn1c(-c2cccnc2[C@H](C)OC)c2c3cc(ccc31)-c1cc(O)cc(c1)C[C@H](NC(=O)[C@H](C(C)C)N(C)C(=O)[C@H]1CCN(C(=O)C3(C)CO3)C1)C(=O)N1CCC[C@H](N1)C(=O)OCC(C)(C)C2 (stereo partly drawn) [Example 332] |  |  |  |  |  |  |  |  |  |  |  |  | IC50 (NRAS Q61K; [17]): 100 to 1000 nM; IC50 (NRAS Q61R; [18]): 100 to 1000 nM; IC50 (NRAS WT; [19]): 10 to 100 nM; IC50 (KRAS G12C; [20]): 10 to 100 nM
